# Data as given in article PMC3511013, “Dimerization of a cell-penetrating peptide leads to enhanced cellular uptake and drug delivery” (Beilstein Journal of Organic Chemistry, 2012).
# Bridge positions count the residues as written; N and C are the ends. Ends that are not written are not given here. Peptide text beside a SMILES is read from it. I, II: the chains in the order shown. * marks the point of attachment. Chlorambucil = O=C(CCCc1ccc(N(CCCl)CCCl)cc1)*
# Assays:
# [1] = system: human adipose tissue-derived stem cells (hADSC); assay: Fluorescence microscopic uptake study in primary cells; type: cell-based; details: 1 h
# Description: For fluorescence microscopic uptake studies, cells were seeded in an 8-well ibidi plate and grown to 60–70% confluence. […] Ten minutes prior to the end of incubation, the nuclei were stained by addition of Hoechst33342 nuclear dye. Finally, the solution was removed, and the cells were treated with a 150 µM trypan blue solution for 0.5 min. After washing twice with PBS, images were taken by using a Zeiss Observer Z1 fluorescence microscope equipped with an ApoTome unit using a 63× oil immersion objective.
# MCF-7 cells [2] = assay: LDH release (membrane integrity) assay
# Description: (§3) For the membrane leakage assay utilizing the Promega CytoTox-One kit, cells were seeded in a 96-well plate, grown to subconfluency, and incubated with the substances at different concentrations for 1 h in the presence of serum under standard growth conditions. Afterwards, the assay was conducted according to the manufacturer’s protocol including the provided cell lysis positive control. Measurement was performed fluorimetrically at 595 nm (λex = 550 nm) on a Tecan SpectraFluor Plus plate reader. The negative control served as blank value, and data were normalized to the positive control. Experiments were carried out with n = 2 in triplicate.
# HEK-293 cells [3] = assay: Resazurin-based cell viability assay; design: species or system human; details: HEK-293, 24 h, concentrations up to 100 µM, n = 2 in triplicate
# Description: (§1) Untreated cells were set to 100%. […] Experiments were carried out with n = 2 in triplicate.
# HT-29 cells [4] = assay: Resazurin-based cell viability assay; design: species or system human; details: n = 2 in triplicate; for IC50: resazurin-based cell viability, 24 h incubation, in the presence of serum, nonlinear regression, ± spread
# Description: as §1
# MCF-7 cells [5] = assay: Resazurin-based cell viability assay; details: n = 2 in triplicate; for IC50: read-out: IC50 MCF-7, resazurin-based cell viability, 24 h incubation, in the presence of serum, nonlinear regression, ± spread
# Description: Cytotoxicity was determined by means of a resazurin-based cell-viability assay. Cells were seeded in a 96-well plate, grown to subconfluency and incubated with the substances at different concentrations for 24 h in the presence of serum under standard growth conditions. For the positive control, cells were treated with 70% ethanol for 10 min. After washing, the cell viability was determined relative to untreated cells by using the In Vitro Toxicology Assay Kit from Sigma-Aldrich according to the manufacturer’s protocol. Measurement was performed fluorimetrically at 595 nm (λex = 550 nm) on a Tecan SpectraFluor Plus plate reader. Untreated cells were set to 100%. IC50 values were calculated by using nonlinear regression (sigmoidal dose–response) with GraphPad Prism. Experiments were carried out with n = 2 in triplicate.
# HT-29 cells [6] = assay: LDH release (membrane integrity) assay; details: HT-29, 1 h incubation
# Description: as §3
# HEK-293 cells [7] = assay: Fluorescence microscopic uptake study; type: cell-based, human; details: unfixed HEK-293, 1 µM CF-labeled peptide, 30 min, fluorescence microscopy
# Description: For fluorescence microscopic uptake studies, cells were seeded in an 8-well ibidi plate and grown to 60–70% confluence. The cells were then incubated with CF-labeled peptides in OptiMEM for 30 min at 37 °C. Ten minutes prior to the end of incubation, the nuclei were stained by addition of Hoechst33342 nuclear dye. Finally, the solution was removed, and the cells were treated with a 150 µM trypan blue solution for 0.5 min. After washing twice with PBS, images were taken by using a Zeiss Observer Z1 fluorescence microscope equipped with an ApoTome unit using a 63× oil immersion objective.
# HEK-293 cells [8] = assay: Flow cytometric cellular uptake of carboxyfluorescein-labeled peptides; type: cell-based, human; details: 1 h, flow cytometry; for cellular uptake at 1 µM: HEK-293, CF-labeled peptide 1 µM
# Description: (§2) For peptide-uptake studies by flow cytometry, cells were seeded in a 48-well plate and grown to 60–70% confluence. After incubation at 37 °C for 1 h with 5(6)-carboxyfluorescein-labeled peptides in OptiMEM, the cells were treated with 150 µM trypan blue for 0.5 min to quench extracellular fluorescence and washed twice with PBS, trypsinized and resuspended in standard cell-culture medium. Analyses were performed on a Partec CyFlow ML flow cytometer. Cellular autofluorescence was subtracted. The experiments were carried out with n (number of experiments) = 2 in duplicate.
# MCF-7 cells [9] = assay: as above; type: cell-based, human; details: 1 h, flow cytometry; for cellular uptake at 1 µM: MCF-7, CF-labeled peptide 1 µM
# Description: as §2
# HT-29 cells [10] = assay: as above; type: cell-based, human; details: 1 h, flow cytometry; for cellular uptake at 1 µM: HT-29, CF-labeled peptide 1 µM
# Description: as §2
# HEK-293 cells [11] = assay: LDH release (membrane integrity) assay; type: cell-based, human; details: HEK-293, 1 h incubation, elevated concentrations, CytoTox-One, n = 2 in triplicate
# Description: Experiments were carried out with n = 2 in triplicate.
# MCF-7 cells [12] = details: cited from earlier work
# Description: (§4) The effect of the dimeric sC18 on the survival of HEK-293, HT-29 and MCF-7 cells was determined by means of a resazurin-based cell viability assay.
# HT-29 cells [13] = details: cited from earlier work
# Description: as §4
# [14] = 25 µM CF-labeled peptide, fluorescence microscopy
compound,measurement,setting,value
CC[C@H](C)[C@H](NC(=O)[C@H](CCCCN)NC(=O)[C@H](CC(N)=O)NC(=O)[C@H](CCCNC(=N)N)NC(=O)[C@H](Cc1ccccc1)NC(=O)[C@H](CCCCN)NC(=O)[C@H](CCCNC(=N)N)NC(=O)[C@H](CC(C)C)NC(=O)[C@H](CCCNC(=N)N)NC(=O)[C@H](CCCCNC(=O)[C@H](CCCCN)NC(=O)[C@H](CCC(=O)O)NC(=O)[C@H](CCCCN)NC(=O)[C@@H](NC(=O)[C@H](CCCCN)NC(=O)[C@H](CC(N)=O)NC(=O)[C@H](CCCNC(=N)N)NC(=O)[C@H](Cc1ccccc1)NC(=O)[C@H](CCCCN)NC(=O)[C@H](CCCNC(=N)N)NC(=O)[C@H](CC(C)C)NC(=O)[C@H](CCCNC(=N)N)NC(=O)[C@H](CCCCN)NC(=O)[C@H](CCCNC(=N)N)NC(=O)[C@H](CC(C)C)NC(=O)CN)[C@@H](C)CC)NC(=O)[C@H](CCCNC(=N)N)NC(=O)[C@H](CC(C)C)NC(=O)CN)C(=O)N[C@@H](CCCCN)C(=O)N[C@@H](CCC(=O)O)C(=O)N[C@@H](CCCCN)C(N)=O [(sC18)2] (I: H-GLRKRLRKFRNKIKEK / II: H-GLRKRLRKFRNKIKEK-NH2; amide I:C-II:4),intracellular distribution in primary cells,[1]; [14],evenly distributed throughout the cells
same,uptake into primary cells,[1]; [14],bright intracellular fluorescence
same,cytotoxicity judged by cell morphology,"[1]; 25 µM, microscopy",no cytotoxicity
same,extracellular LDH (membrane destabilization),"MCF-7 cells [2]; MCF-7, 30 µM, 1 h incubation, in the presence of serum, CytoTox-One",high levels of extracellular LDH
same,cell viability,HEK-293 cells [3],remained unharmed
same,cell viability,"HT-29 cells [4]; HT-29, 24 h, resazurin, different concentrations up to 100 µM (Figure 3)",steady decrease of cell viability
same,cell viability,"MCF-7 cells [5]; MCF-7, 24 h, resazurin, different concentrations up to 100 µM (Figure 3)",steady decrease of cell viability
same,extracellular LDH levels,"HT-29 cells [6]; in the presence of serum, CytoTox-One, compared to MCF-7",much smaller
same,intracellular distribution pattern,HEK-293 cells [7],punctate uptake pattern
same,cellular uptake at 1 µM,"HEK-293 cells [8]; 37 °C, OptiMEM",significant uptake
same,increase of intracellular fluorescence versus sC18,"HEK-293 cells [8]; HEK-293, CF-labeled peptides, 37 °C, OptiMEM, trypan blue quench, n = 2 in duplicate",≥ 10 fold
same,uptake rate at 1 µM compared to sC18 at 10 µM,"HEK-293 cells [8]; HEK-293, CF-labeled, p ≤ 0.05",significantly higher
same,cellular uptake at 1 µM,"MCF-7 cells [9]; 37 °C, OptiMEM",significant uptake
same,increase of intracellular fluorescence versus sC18,"MCF-7 cells [9]; MCF-7, CF-labeled peptides, 37 °C, OptiMEM, trypan blue quench, n = 2 in duplicate",≥ 10 fold
same,uptake rate at 1 µM compared to sC18 at 10 µM,"MCF-7 cells [9]; MCF-7, CF-labeled, p ≤ 0.05",significantly higher
same,amount taken up by HT-29 cells compared to the other cell lines,"HT-29 cells [10]; CF-labeled peptide 10 µM, versus HEK-293 and MCF-7",less than half
same,cellular uptake at 1 µM,"HT-29 cells [10]; 37 °C, OptiMEM",significant uptake
same,increase of intracellular fluorescence versus sC18,"HT-29 cells [10]; HT-29, CF-labeled peptides, 37 °C, OptiMEM, trypan blue quench, n = 2 in duplicate",≥ 10 fold
same,membrane leakage (LDH release),HEK-293 cells [11],only show a little membrane leakage
CC[C@H](C)[C@H](NC(=O)[C@H](CCCCN)NC(=O)[C@H](CC(N)=O)NC(=O)[C@H](CCCNC(=N)N)NC(=O)[C@H](Cc1ccccc1)NC(=O)[C@H](CCCCN)NC(=O)[C@H](CCCNC(=N)N)NC(=O)[C@H](CC(C)C)NC(=O)[C@H](CCCNC(=N)N)NC(=O)[C@H](CCCCNC(=O)[C@H](CCCCN)NC(=O)[C@H](CCC(=O)O)NC(=O)[C@H](CCCCN)NC(=O)[C@@H](NC(=O)[C@H](CCCCN)NC(=O)[C@H](CC(N)=O)NC(=O)[C@H](CCCNC(=N)N)NC(=O)[C@H](Cc1ccccc1)NC(=O)[C@H](CCCCN)NC(=O)[C@H](CCCNC(=N)N)NC(=O)[C@H](CC(C)C)NC(=O)[C@H](CCCNC(=N)N)NC(=O)[C@H](CCCCN)NC(=O)[C@H](CCCNC(=N)N)NC(=O)[C@H](CC(C)C)NC(=O)CNC(=O)[C@H](CC(C)C)NC(=O)[C@H](Cc1ccccc1)NC(=O)CNC(=O)CCCc1ccc(N(CCCl)CCCl)cc1)[C@@H](C)CC)NC(=O)[C@H](CCCNC(=N)N)NC(=O)[C@H](CC(C)C)NC(=O)CNC(=O)[C@H](CC(C)C)NC(=O)[C@H](Cc1ccccc1)NC(=O)CNC(=O)CCCc1ccc(N(CCCl)CCCl)cc1)C(=O)N[C@@H](CCCCN)C(=O)N[C@@H](CCC(=O)O)C(=O)N[C@@H](CCCCN)C(N)=O [compound 3] (I: Chlorambucil-GFLGLRKRLRKFRNKIKEK / II: Chlorambucil-GFLGLRKRLRKFRNKIKEK-NH2; amide I:C-II:7),LDH release compared to the cymantrene conjugates,"MCF-7 cells [2]; MCF-7, 1 h incubation, different concentrations (Figure 9)",equal amount of LDH release
same,IC50,HT-29 cells [4],26 ± 1.2 µM
same,IC50,MCF-7 cells [5],8.9 ± 0.3 µM
same,LDH release compared to the cymantrene conjugates,HT-29 cells [6]; different concentrations (Figure 9),equal amount of LDH release
"GLRKRLRKFRNKIKEK-NH2 [sC18, reference compound]",uptake into primary cells,[1]; [14],hardly any detectable uptake
same,cell viability (previous studies),MCF-7 cells [12],did not cause any loss of cell viability
same,intracellular distribution pattern,HEK-293 cells [7],punctate uptake pattern
same,cellular uptake at 1 µM,"HEK-293 cells [8]; 37 °C, OptiMEM",almost failed to internalize
same,cellular uptake at 1 µM,"MCF-7 cells [9]; 37 °C, OptiMEM",almost failed to internalize
same,cellular uptake at 1 µM,"HT-29 cells [10]; 37 °C, OptiMEM",almost failed to internalize
same,cell viability (previous studies),HT-29 cells [13],did not cause any loss of cell viability
I: KLAKLAKKLAKLAKGFLGLRKRLRKFRNKIKEK-NH2 / II: GLRKRLRKFRNKIKEK (amide I:21-II:C) [compound 4],IC50,HT-29 cells [4],14.3 ± 1.4 µM
same,IC50,MCF-7 cells [5],3.6 ± 1.5 µM
